Assay results published in PubChem BioAssay AID248 (DTP/NCI, 2004).
Inconclusive results and toxic doses are left out. Cut-off read from the data, not from the text of the source: active = T/C of 150% or more; inactive = T/C below 125%.

System: L1210 leukemia ip in BDF1 mice, survival T/C
Assay: NCI In Vivo Anticancer Drug Screen. Data for tumor model L1210 Leukemia (intraperitoneal) in B6D2F1 (BDF1) mice
Conditions: endpoint: mean survival time, higher = longer survival
Outline: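 Survival endpoint. Drug-treated group vs vehicle group, expressed as T divided by C. Tumor passaged by transplantation.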

[1] = dose: 100.0 mg/kg/injection, schedule: Q01DX009 (ip), vehicle: Klucel (hydroxypropylcellulose) (HPC)
[2] = dose: 100.0 mg/kg/injection, schedule: Q04DX003 (ip), vehicle: Klucel (hydroxypropylcellulose) (HPC)
[3] = dose: 200.0 mg/kg/injection, schedule: Q01DX009 (ip), vehicle: Klucel (hydroxypropylcellulose) (HPC)
[4] = dose: 200.0 mg/kg/injection, schedule: Q04DX003 (ip), vehicle: Klucel (hydroxypropylcellulose) (HPC)
[5] = dose: 400.0 mg/kg/injection, schedule: Q01DX009 (ip), vehicle: Klucel (hydroxypropylcellulose) (HPC)
[6] = dose: 400.0 mg/kg/injection, schedule: Q04DX003 (ip), vehicle: Klucel (hydroxypropylcellulose) (HPC)
[7] = dose: 100.0 mg/kg/injection, schedule: Q01DX001 (ip), vehicle: saline
[8] = dose: 200.0 mg/kg/injection, schedule: Q01DX001 (ip), vehicle: saline
[9] = dose: 400.0 mg/kg/injection, schedule: Q01DX001 (ip), vehicle: saline

Measured: T/C

Cc1ccc(NC(=S)NC(=O)c2ccco2)cc1Cl
inactive: [1] 101 % of control | [2] 102 % of control | [3] 106 % of control | [4] 98 % of control | [5] 102 % of control | [6] 98 % of control

COc1ccc(OC)c(NC(=O)Nc2ccc(N(C)C)cc2)c1
inactive: [2] 93 % of control | [4] 97 % of control | [6] 95 % of control

CC(C)(CC(=O)c1ccccc1)CC(=O)c1ccccc1
inactive: [7] 109 % of control | [8] 116 % of control | [9] 98 % of control

CC(=O)C(C)CCOC1(C)OCCC1C (stereo not given)
inactive: dose: 50.0 mg/kg/injection, schedule: Q01DX001 (ip), vehicle: saline 103 % of control | [7] 116 % of control | [8] 100 % of control | [9] 103 % of control

Nc1nc(N)c(N=Nc2ccc(S(=O)(=O)O)cc2)c(N)n1
inactive: dose: 100.0 mg/kg/injection, schedule: Q04DX003 (ip), vehicle: saline with Tween-80 102 % of control | dose: 200.0 mg/kg/injection, schedule: Q04DX003 (ip), vehicle: saline with Tween-80 102 % of control | dose: 400.0 mg/kg/injection, schedule: Q04DX003 (ip), vehicle: saline with Tween-80 104 % of control

O=C(NO)c1ccccn1
inactive: dose: 90.0 mg/kg/injection, schedule: Q01DX015 (ip), vehicle: water 97 % of control | dose: 130.0 mg/kg/injection, schedule: Q01DX015 (ip), vehicle: water 101 % of control | dose: 133.0 mg/kg/injection, schedule: Q01DX015 (ip), vehicle: water 97 % of control | dose: 200.0 mg/kg/injection, schedule: Q01DX015 (ip), vehicle: water 110 % of control

CN(C)C(=S)SCCC(N)C(=O)O (stereo not given)
inactive: dose: 50.0 mg/kg/injection, schedule: Q01DX009 (ip), vehicle: saline with Tween-80 90 % of control | dose: 100.0 mg/kg/injection, schedule: Q01DX009 (ip), vehicle: saline with Tween-80 101 % of control | dose: 200.0 mg/kg/injection, schedule: Q01DX009 (ip), vehicle: saline with Tween-80 96 % of control

CCOC(=O)CCc1c(C(=O)OCC)[nH]c(C)c1C(=O)O
inactive: [2] 95 % of control | [4] 98 % of control | [6] 97 % of control

O=C(OCC1CC=CC1)C1CC=CC1
inactive: dose: 100.0 mg/kg/injection, schedule: Q04DX003 (ip), vehicle: saline sonified 102 % of control | dose: 200.0 mg/kg/injection, schedule: Q04DX003 (ip), vehicle: saline sonified 96 % of control

O=C(NC/C(Br)=C/Br)Oc1cccc2c1CCCC2
inactive: dose: 100.0 mg/kg/injection, schedule: Q04DX002 (ip), vehicle: other 94 % of control | dose: 200.0 mg/kg/injection, schedule: Q04DX002 (ip), vehicle: other 94 % of control | dose: 400.0 mg/kg/injection, schedule: Q04DX002 (ip), vehicle: other 91 % of control

Cc1cccc(Cl)c1NC(=O)c1cccc(C(=O)Nc2c(C)cccc2Cl)c1
inactive: [1] 96 % of control | [3] 94 % of control | [5] 91 % of control

Cc1ccc(NC(=O)C(Br)C(Br)c2ccccc2)cc1Cl (stereo not given)
inactive: [1] 96 % of control | [3] 92 % of control | [5] 88 % of control
